Test results reported in the OligoGym collection.
Where “and” joins values, the source holds several entries; their conditions need not be identical. Equal entries are not always repeated. After the bases stand the sugars from the 5' end (letter, count) and the backbone: PS all phosphorothioate, else s phosphorothioate and o phosphodiester by linkage. Methylation of C is not given here. e = 2'-O-(2-methoxyethyl) (MOE); k = constrained ethyl (cEt); d = 2'-deoxy (DNA)

Biological target: IRF4
Conditions: ASO, MM.1R, 0.0625 µM

Q: With GGCGAGTTGGCACAAT (sugars k3 d10 k3, PS) as the sequence, how does the target mRNA inhibition read?
A: The target mRNA inhibition was -13%.

Same assay, conditions: ASO, MM.1R, 0.25 µM

Q: With GGCGAGTTGGCACAAT (sugars k3 d10 k3, PS) as the sequence, how does the target mRNA inhibition read?
A: Its target mRNA inhibition is 3%.

Same assay, conditions: ASO, MM.1R, 1 µM

Q: For GGACGCACGGAGAGGG (sugars k3 d10 k3, PS), which target mRNA inhibition is on record?
A: The target mRNA inhibition was 15%.

Q: How did the target mRNA inhibition turn out when GGAGGATCATAAAGGA (sugars k3 d10 k3, PS) was run?
A: Its target mRNA inhibition is 32%.

Q: For “GGCACATCAATGTTTT (sugars kkdddddddddekeke, PS)”, which target mRNA inhibition is on record?
A: The target mRNA inhibition was 22% and 26%.

Q: Which target mRNA inhibition does the source give for GGCCACATTAGCAATT (sugars k3 d10 k3, PS) here?
A: The target mRNA inhibition was 0%.

Q: How did the target mRNA inhibition turn out when GGCCATTCGAGGTGAT (sugars k3 d10 k3, PS) was run?
A: The target mRNA inhibition was 1%.

Q: Which target mRNA inhibition does the source give for GGCGACGACAGCTGCG (sugars k3 d10 k3, PS) here?
A: Its target mRNA inhibition is -15%.

Q: How did the target mRNA inhibition turn out when GGCGAGTTGGCACAAT (sugars k3 d10 k3, PS) was run?
A: The target mRNA inhibition was 49% and 30%.

Q: GGCGGACACGCCCGAC (sugars k3 d10 k3, PS) was tested. Which target mRNA inhibition did it give?
A: The target mRNA inhibition was 7%.

Q: “GGGATTATATACTGGT (sugars kdddddddddkekeke, PS)” was tested. Which target mRNA inhibition did it give?
A: The target mRNA inhibition was 29%.

Q: With “GGGATTATATACTGGT (sugars kkdddddddddkdkdk, PS)” as the sequence, how does the target mRNA inhibition read?
A: Its target mRNA inhibition is 41%.

Same assay, conditions: ASO, MM.1R, 4 µM

Q: With GGCGAGTTGGCACAAT (sugars k3 d10 k3, PS) as the sequence, how does the target mRNA inhibition read?
A: Its target mRNA inhibition is 60%.

Same assay, conditions: ASO, SK-MEL-28, 0.185 µM

Q: For GGGTACATGGCAGTGG (sugars k3 d10 k3, PS), which target mRNA inhibition is on record?
A: Its target mRNA inhibition is 19%.

Same assay, conditions: ASO, SK-MEL-28, 4 µM

Q: With GGACAGACCAGGATTC (sugars k3 d10 k3, PS) as the sequence, how does the target mRNA inhibition read?
A: The target mRNA inhibition was 25%.

Q: GGAGAATTTGGGCTGG (sugars k3 d10 k3, PS) was tested. Which target mRNA inhibition did it give?
A: Its target mRNA inhibition is 75%.

Q: For GGAGAGCGGAGGCGGG (sugars k3 d10 k3, PS), which target mRNA inhibition is on record?
A: The target mRNA inhibition was 21%.

Q: How did the target mRNA inhibition turn out when GGATAATATACCCCAA (sugars k3 d10 k3, PS) was run?
A: The target mRNA inhibition was 64%.

Q: GGCAAGCTGAATGCTC (sugars k3 d10 k3, PS) was tested. Which target mRNA inhibition did it give?
A: The target mRNA inhibition was 29%.

Q: With GGCAATGGAGTCTCGC (sugars k3 d10 k3, PS) as the sequence, how does the target mRNA inhibition read?
A: The target mRNA inhibition was 50%.

Q: With GGCACGAGGAAGCATA (sugars k3 d10 k3, PS) as the sequence, how does the target mRNA inhibition read?
A: Its target mRNA inhibition is 62%.

Q: For GGCAGTGGAGCTCCAC (sugars k3 d10 k3, PS), which target mRNA inhibition is on record?
A: The target mRNA inhibition was 73%.

Q: For GGCCAAATTGCAAAGG (sugars k3 d10 k3, PS), which target mRNA inhibition is on record?
A: Its target mRNA inhibition is 48%.

Q: GGCCCGGGCGCATCCC (sugars k3 d10 k3, PS) was tested. Which target mRNA inhibition did it give?
A: Its target mRNA inhibition is 5%.

Q: Which target mRNA inhibition does the source give for GGCCGGAGACCTTGAA (sugars k3 d10 k3, PS) here?
A: The target mRNA inhibition was 3%.

Q: With GGCCTCCCGCTTGTGG (sugars k3 d10 k3, PS) as the sequence, how does the target mRNA inhibition read?
A: Its target mRNA inhibition is -18%.

Q: For GGCCTTAGCCTTCCTG (sugars k3 d10 k3, PS), which target mRNA inhibition is on record?
A: Its target mRNA inhibition is 17%.

Q: For GGCCTTGCCAGTGGTG (sugars k3 d10 k3, PS), which target mRNA inhibition is on record?
A: Its target mRNA inhibition is -12%.

Q: GGCCTTGCCAGTGGTG (sugars k4 d8 k4, PS) was tested. Which target mRNA inhibition did it give?
A: Its target mRNA inhibition is 6%.

Q: For GGCGCGCTCCCTTCCC (sugars k3 d10 k3, PS), which target mRNA inhibition is on record?
A: Its target mRNA inhibition is 10%.

Q: With GGCGGAGCATCAACAA (sugars k3 d10 k3, PS) as the sequence, how does the target mRNA inhibition read?
A: The target mRNA inhibition was 60%.

Q: For GGCGGAGCTTCCCGTT (sugars k3 d10 k3, PS), which target mRNA inhibition is on record?
A: Its target mRNA inhibition is 26%.

Q: How did the target mRNA inhibition turn out when GGCTATCAGGATCTCA (sugars k3 d10 k3, PS) was run?
A: Its target mRNA inhibition is 45%.

Q: Which target mRNA inhibition does the source give for GGCTCAACCTGGAAGG (sugars k3 d10 k3, PS) here?
A: Its target mRNA inhibition is 29%.

Q: With GGCTGAACTGTGTAAT (sugars k3 d10 k3, PS) as the sequence, how does the target mRNA inhibition read?
A: The target mRNA inhibition was 72%.

Q: With GGCTTTGTGTTTAAGT (sugars k3 d10 k3, PS) as the sequence, how does the target mRNA inhibition read?
A: The target mRNA inhibition was 23%.

Q: How did the target mRNA inhibition turn out when GGGAAAGAGCTTTGGT (sugars k3 d10 k3, PS) was run?
A: Its target mRNA inhibition is 5%.

Q: How did the target mRNA inhibition turn out when GGGAACAGGACCTGGT (sugars k3 d10 k3, PS) was run?
A: Its target mRNA inhibition is 55%.

Q: Which target mRNA inhibition does the source give for GGGAACCTGAAAAGAG (sugars k3 d10 k3, PS) here?
A: The target mRNA inhibition was 21%.

Q: With GGGAATTTCCATTGGA (sugars k3 d10 k3, PS) as the sequence, how does the target mRNA inhibition read?
A: Its target mRNA inhibition is 44%.

Q: Which target mRNA inhibition does the source give for GGGAGATCCGGCAGCC (sugars k4 d8 k4, PS) here?
A: Its target mRNA inhibition is -13%.

Q: How did the target mRNA inhibition turn out when GGGCTTCCTAGGTTTC (sugars k3 d10 k3, PS) was run?
A: Its target mRNA inhibition is 39%.

Q: GGGTACATGGCAGTGG (sugars k3 d10 k3, PS) was tested. Which target mRNA inhibition did it give?
A: Its target mRNA inhibition is 68%.

Q: GGGTACCCTGCGCTGC (sugars k3 d10 k3, PS) was tested. Which target mRNA inhibition did it give?
A: Its target mRNA inhibition is 44%.

Q: For GGGTCCTCCGCCCGCT (sugars k3 d10 k3, PS), which target mRNA inhibition is on record?
A: The target mRNA inhibition was 28%.

Q: How did the target mRNA inhibition turn out when GGTAAACTGCCTTAGG (sugars k3 d10 k3, PS) was run?
A: The target mRNA inhibition was 25%.

Q: With GGTAAAGGAGTGCAGG (sugars k3 d10 k3, PS) as the sequence, how does the target mRNA inhibition read?
A: The target mRNA inhibition was 46%.

Same assay, conditions: ASO, SK-MEL-28, 5 µM

Q: With GGGTACATGGCAGTGG (sugars k3 d10 k3, PS) as the sequence, how does the target mRNA inhibition read?
A: The target mRNA inhibition was 76%.

Same assay, conditions: ASO, SK-MEL-28, 15 µM

Q: With GGGTACATGGCAGTGG (sugars k3 d10 k3, PS) as the sequence, how does the target mRNA inhibition read?
A: The target mRNA inhibition was 92%.
